Molecular target: T1, human USP18 residues 52-372 (recombinant) (Homo sapiens, UniProt Q9UMW8)
T1 sequence (Q9UMW8 52-372): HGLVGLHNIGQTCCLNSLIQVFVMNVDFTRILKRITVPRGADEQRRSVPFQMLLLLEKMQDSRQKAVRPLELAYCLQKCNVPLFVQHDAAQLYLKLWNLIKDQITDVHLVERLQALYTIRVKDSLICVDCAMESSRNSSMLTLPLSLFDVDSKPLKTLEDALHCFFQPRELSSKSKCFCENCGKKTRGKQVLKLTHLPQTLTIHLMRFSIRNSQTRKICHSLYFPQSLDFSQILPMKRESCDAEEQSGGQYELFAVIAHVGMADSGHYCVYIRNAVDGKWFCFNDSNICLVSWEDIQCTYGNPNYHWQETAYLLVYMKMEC
Test: fluorogenic ISG15ct-rhodamine cleavage, dose-response
Format: biochemical

## Cc1ccc2[nH]c3c(c2c1)CN(C(=O)c1cc(-c2ccccc2)[nH]n1)CC3 [compound 8655, ZHAWOC8655]
  IC50: 14.1 ± 1.6 µM

Source: doi:10.1101/2025.03.30.646166v1 (biorxiv, 2025)
